Results published in PubChem BioAssay AID1963825 (Molecular Pharmacology Branch, DTP, NCI, 2024).

Assay: Anticancer human tumor 997537-175-T-J1-PDC patient-derived colon adenocarcinoma cell line growth inhibition [POLQ]
Settings: 997537-175-T-J1-PDC complex spheroid viability, combination with POLQ inhibitors; for IC50: curve of first compound; for viability, T/C: stronger effect = lower value
How it was run: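 PDC + HUVEC + MSC complex spheroids; POLQ inhibitors ± partner drugs; top conc. at/near clinical Cmax, else 10 microM (SN-38 1 microM), half-log dilutions; 37 degrees C, 5% CO2.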
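Also: luminescence signal used as a surrogate for viable cells; spheroids exposed to drugs for seven days before readout.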

Work on `CC[C@@]1(O)C(=O)OCc2c1cc1n(c2=O)Cc2cc3c(CN(C)C)c(O)ccc3nc2-1` + Cc1cccc(N(C)C(=O)C2C(O)CCN2c2nc(C)cc(C(F)(F)F)c2C#N)c1 yielded an IC50 (second compound 0.0316 µM) greater than 100 nM, an IC50 (second compound 0.1 µM) greater than 100 nM and an IC50 (second compound 0.316 µM) greater than 100 nM. For the same molecule, the IC50 (second compound 1 µM) was greater than 100 nM, the IC50 (second compound 3.16 µM) was greater than 100 nM and the IC50 (second compound 10 µM) was greater than 100 nM. The viability, T/C (second compound 0.0316 µM, first compound 0.000316 µM) was 108%, the viability, T/C (second compound 0.0316 µM, first compound 0.001 µM) was 102% and the viability, T/C (second compound 0.0316 µM, first compound 0.00316 µM) was 102%. For the same molecule, the viability, T/C (second compound 0.0316 µM, first compound 0.01 µM) was 83.1%, the viability, T/C (second compound 0.0316 µM, first compound 0.0316 µM) was 87.9% and the viability, T/C (second compound 0.0316 µM, first compound 0.1 µM) was 71.3%. The viability, T/C (second compound 0.1 µM, first compound 0.000316 µM) was 94.9%, the viability, T/C (second compound 0.1 µM, first compound 0.001 µM) was 92.4% and the viability, T/C (second compound 0.1 µM, first compound 0.00316 µM) was 92.6%. For the same molecule, the viability, T/C (second compound 0.1 µM, first compound 0.01 µM) was 105%, the viability, T/C (second compound 0.1 µM, first compound 0.0316 µM) was 96.2% and the viability, T/C (second compound 0.1 µM, first compound 0.1 µM) was 64.3%. For the same molecule, the viability, T/C (second compound 0.316 µM, first compound 0.000316 µM) was 90%, the viability, T/C (second compound 0.316 µM, first compound 0.001 µM) was 100% and the viability, T/C (second compound 0.316 µM, first compound 0.00316 µM) was 107%. It also gave a viability, T/C (second compound 0.316 µM, first compound 0.01 µM) of 95.1%, a viability, T/C (second compound 0.316 µM, first compound 0.0316 µM) of 103% and a viability, T/C (second compound 0.316 µM, first compound 0.1 µM) of 73.7%. The viability, T/C (second compound 1 µM, first compound 0.000316 µM) was 108%, the viability, T/C (second compound 1 µM, first compound 0.001 µM) was 96.7% and the viability, T/C (second compound 1 µM, first compound 0.00316 µM) was 97.5%. For the same molecule, the viability, T/C (second compound 1 µM, first compound 0.01 µM) was 111%, the viability, T/C (second compound 1 µM, first compound 0.0316 µM) was 83.1% and the viability, T/C (second compound 1 µM, first compound 0.1 µM) was 66.7%. For the same molecule, the viability, T/C (second compound 3.16 µM, first compound 0.000316 µM) was 113%, the viability, T/C (second compound 3.16 µM, first compound 0.001 µM) was 101% and the viability, T/C (second compound 3.16 µM, first compound 0.00316 µM) was 101%. For the same molecule, the viability, T/C (second compound 3.16 µM, first compound 0.01 µM) was 89.3%, the viability, T/C (second compound 3.16 µM, first compound 0.0316 µM) was 89.8% and the viability, T/C (second compound 3.16 µM, first compound 0.1 µM) was 72%. It also gave a viability, T/C (second compound 10 µM, first compound 0.000316 µM) of 98%, a viability, T/C (second compound 10 µM, first compound 0.001 µM) of 104% and a viability, T/C (second compound 10 µM, first compound 0.00316 µM) of 102%. It also gave a viability, T/C (second compound 10 µM, first compound 0.01 µM) of 97.3%, a viability, T/C (second compound 10 µM, first compound 0.0316 µM) of 82.5% and a viability, T/C (second compound 10 µM, first compound 0.1 µM) of 68.9%.
